From patent US20260078119A1, “DEGRADER COMPOUNDS AND USES THEREOF” (Bristol-Myers Squibb Company, priority 2024, published 2026)

Tests used:
FAK = target: T1, FAK (Homo sapiens, UniProt Q05397); assay: FAK-HiBiT Degradation Assay; format: cell-based; settings: for DC50: JHH-4-FAK-HiBiT clone d01 cells, two hours incubation, 10-point dose response, 3-fold dilution starting at 1 μM, Nano-Glo HiBiT luminescence, read-out: FAK HiBiT EC50; for FAK HiBiT Ymin: lower limit of the four parameter fit (value A), Ymax derived using DMSO control, JHH-4-FAK-HiBiT cells, two hours
T1 construct: homozygous knock-in of a HiBiT tag (Promega Corporation, Madison, WI) to the C-terminus of the FAK gene in its natural genomic locus; endogenous in cells; host or cells: JHH-4-FAK-HiBiT clone d01 (CRISPR-Cas9 knock-in at the endogenous locus)
Procedure, shortened: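 Degradation read out by HiBiT lytic luminescence after 2 h compound exposure (top concentration 1 μM, 3-fold, 10 points) in JHH-4 clone d01 bearing endogenous FAK-HiBiT knock-in. Four-parameter logistic fit gave EC50 and Ymin; DMSO wells defined Ymax.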

CAL-51 cells = assay: CAL-51 Cell Proliferation Assay; format: cell-based; settings: for EC50: Homo sapiens, 120 hours incubation, 10-point dose response, 4-fold dilutions starting at 10 μM, Cell-Titer-Glo, read-out: CAL-51 Prolif EC50; for CAL-51 Prolif Ymin: minimal percent of DMSO control observed in the concentrations tested (Ymin-obs), 120 hours
From the text: CAL-51 cells were obtained from Bristol Myers Squibb internal cell banks (originally sourced from DSMZ-German Collection of Microorganisms and Cell Cultures GmbH, Germany) and cultured in RPMI complete media (RPMI-1640, 10% Fetal Bovine serum, 1× Antibiotic-Antimycotic, and 1× Non-Essential Amino Acids). Compounds were dispensed into 384-well plates using an acoustic dispenser (Beckman Coulter Life Sciences, Carlsbad, CA) in duplicate with 14 compounds on each plate. For each compound, a 10-point dose response was printed at 4-fold dilutions starting at 10 μM. The DMSO concentration was kept constant for a final assay concentration of 0.1% per well assuming 50 uL final media volume. Compound plates were sealed and frozen at −20° C. until use.
For each assay batch, compound plates were thawed and allowed to reach room temperature, and cells were seeded at 350 cells per well in 50 μl complete RPMI media. After 120 hours of incubation at 37° C. and 5% CO2, cells were lysed by addition of 25 μL of Cell-Titer-Glo Reagent (Promega Corporation, Madison, WI), as per manufacturer's instructions, protected from light, shaken for 20 minutes, and total luminescence read by a CLARIOstar Plus plate reader (BMG LabTech, Cary, NC). Total luminescence signal is linearly correlated with cell number remaining in the well.
Luminescence data was processed per plate by subtracting reagent-only “blank” well luminescence from all measured values and calculating a percent of DMSO control value for each treatment well. Then, to determine the half-maximal effective concentration (EC50) values for cell growth inhibition, a four parameter logistic model was fit to the data for each DMSO-normalized compound: Sigmoidal Dose-Response Model: (FIT=(A+((B−A)/1+((C/x)^D)))) where C is the inflection point (EC50), D is the Hill slope, and A and B are the low and high limits of the fit respectively. The lower limit of the fit (value A) is referred to as Ymin-calculated. The minimal percent of DMSO control that is observed in the concentrations tested for each compound is labeled as “Ymin-obs”, and was recorded and reported in the tables. Sigmoidal fit curves were processed and evaluated using Dotmatics Atlas (Insightful Science, LLC, Boston, MA).

T1 sequence (Q05397 whole entry): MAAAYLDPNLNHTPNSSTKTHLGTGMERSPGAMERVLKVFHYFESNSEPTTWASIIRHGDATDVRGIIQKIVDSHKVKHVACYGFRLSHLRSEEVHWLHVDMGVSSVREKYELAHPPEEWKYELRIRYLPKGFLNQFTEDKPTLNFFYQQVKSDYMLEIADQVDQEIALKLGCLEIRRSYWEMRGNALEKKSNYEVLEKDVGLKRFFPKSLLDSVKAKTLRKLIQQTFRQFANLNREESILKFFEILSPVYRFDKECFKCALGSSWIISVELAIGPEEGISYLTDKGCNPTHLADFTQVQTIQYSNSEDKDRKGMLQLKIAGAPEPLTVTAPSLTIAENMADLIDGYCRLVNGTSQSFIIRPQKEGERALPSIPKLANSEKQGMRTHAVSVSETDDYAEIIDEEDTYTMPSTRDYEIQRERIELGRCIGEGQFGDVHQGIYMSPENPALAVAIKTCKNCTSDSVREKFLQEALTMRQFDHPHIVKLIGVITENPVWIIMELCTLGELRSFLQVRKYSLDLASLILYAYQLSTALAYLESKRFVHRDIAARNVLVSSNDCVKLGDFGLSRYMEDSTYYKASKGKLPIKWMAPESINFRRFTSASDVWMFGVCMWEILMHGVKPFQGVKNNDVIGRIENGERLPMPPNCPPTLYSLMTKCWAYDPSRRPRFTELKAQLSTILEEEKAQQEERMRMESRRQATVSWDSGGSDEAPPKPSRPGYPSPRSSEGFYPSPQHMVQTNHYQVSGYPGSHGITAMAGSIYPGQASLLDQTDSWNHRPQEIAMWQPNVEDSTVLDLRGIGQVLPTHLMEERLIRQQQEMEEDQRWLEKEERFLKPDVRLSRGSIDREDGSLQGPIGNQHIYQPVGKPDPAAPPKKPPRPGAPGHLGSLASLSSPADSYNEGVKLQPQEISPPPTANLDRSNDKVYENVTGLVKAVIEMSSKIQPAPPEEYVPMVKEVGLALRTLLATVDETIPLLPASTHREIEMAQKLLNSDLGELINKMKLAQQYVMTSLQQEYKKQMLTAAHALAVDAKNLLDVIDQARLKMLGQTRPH

DC50 (FAK) | FAK HiBiT Ymin (FAK) | Structure (SMILES) | EC50 (CAL-51 cells) | CAL-51 Prolif Ymin (CAL-51 cells)
≥ 1000 nM | 82.45 | O=C1CCC(N2Cc3cc(Cn4ncc5c(-c6ncc(C(F)(F)F)cc6Cl)cc(N[C@@H]6CCOC6)nc54)ccc3C2=O)C(=O)N1 (stereo partly drawn) [Example 133, 3-[5-({4-[3-chloro-5-(trifluoromethyl)pyridin-2-yl]-6-{[(3R)-oxolan-3-yl]amino}-1H-pyrazolo[3,4-b]pyridin-1-yl}methyl)-1-oxo-2,3-dihydro-1H-isoindol-2-yl]piperidine-2,6-dione] | 23.3 nM | 84.63
8 nM | 8.29 | O=C1CC[C@H](N2Cc3cc(Cn4ncc5c(-c6ncc(C(F)(F)F)cc6Cl)cc(N6CC(F)C6)nc54)cnc3C2=O)C(=O)N1 [Example 77, (3S)-3-[3-({4-[3-chloro-5-(trifluoromethyl)pyridin-2-yl]-6-(3-fluoroazetidin-1-yl)-1H-pyrazolo[3,4-b]pyridin-1-yl}methyl)-7-oxo-5H,6H,7H-pyrrolo[3,4-b]pyridin-6-yl]piperidine-2,6-dione] | 3.67 nM | 28.95
≥ 1000 nM | 84.84 | COc1cc(F)cnc1-c1cc(N2CC(F)C2)nc2c1cnn2Cc1ccc2c(c1)CN(C1CCC(=O)NC1=O)C2=O (stereo not drawn) [Example 130, 3-(5-{[4-(5-fluoro-3-methoxypyridin-2-yl)-6-(3-fluoroazetidin-1-yl)-1H-pyrazolo[3,4-b]pyridin-1-yl]methyl}-1-oxo-2,3-dihydro-1H-isoindol-2-yl)piperidine-2,6-dione] | 3900 nM | 76.29
1.87 nM | 8.06 | O=C1CCC(N2Cc3cc(Cn4ncc5c(-c6ccc(C(F)(F)F)cc6Cl)cc(N6CC(F)C6)nc54)ccc3C2=O)C(=O)N1 (stereo not drawn) [Example 48, 3-[5-({4-[2-chloro-4-(trifluoromethyl)phenyl]-6-(3-fluoroazetidin-1-yl)-1H-pyrazolo[3,4-b]pyridin-1-yl}methyl)-1-oxo-2,3-dihydro-1H-isoindol-2-yl]piperidine-2,6-dione] | 0.52 nM | 19.89
13.4 nM | 8.18 | O=C1CCC(N2Cc3cc(Cn4ncc5c(-c6ncccc6Cl)cc(N6CC(F)C6)nc54)ccc3C2=O)C(=O)N1 (stereo not drawn) [Example 89, 3-(5-{[4-(3-chloropyridin-2-yl)-6-(3-fluoroazetidin-1-yl)-1H-pyrazolo[3,4-b]pyridin-1-yl]methyl}-1-oxo-2,3-dihydro-1H-isoindol-2-yl)piperidine-2,6-dione] | 6.69 nM | 24.94
≥ 1000 nM | 87.20 | Cc1cnc(-c2cc(N3CC(F)C3)nc3c2cnn3Cc2ccc3c(c2)CN(C2CCC(=O)NC2=O)C3=O)nc1 (stereo not drawn) [Example 138, 3-(5-{[6-(3-fluoroazetidin-1-yl)-4-(5-methylpyrimidin-2-yl)-1H-pyrazolo[3,4-b]pyridin-1-yl]methyl}-1-oxo-2,3-dihydro-1H-isoindol-2-yl)piperidine-2,6-dione] | 160 nM | 89.63
3.41 nM | 8.26 | Cc1cnc(-c2cc(N3CC(F)C3)nc3c2cnn3Cc2ccc3c(c2)CN(C2CCC(=O)NC2=O)C3=O)c(Cl)c1 (stereo not drawn) [Example 57, 3-(5-{[4-(3-chloro-5-methylpyridin-2-yl)-6-(3-fluoroazetidin-1-yl)-1H-pyrazolo[3,4-b]pyridin-1-yl]methyl}-1-oxo-2,3-dihydro-1H-isoindol-2-yl)piperidine-2,6-dione] | 1.51 nM | 25.51
6.88 nM | 8.00 | CCOc1cnc(-c2cc(N3CC(F)C3)nc3c2cnn3Cc2ccc3c(c2)CN(C2CCC(=O)NC2=O)C3=O)c(CC)c1 (stereo not drawn) [Example 74, 3-(5-{[4-(5-ethoxy-3-ethylpyridin-2-yl)-6-(3-fluoroazetidin-1-yl)-1H-pyrazolo[3,4-b]pyridin-1-yl]methyl}-1-oxo-2,3-dihydro-1H-isoindol-2-yl)piperidine-2,6-dione] | 4.11 nM | 34.11
1.54 nM | 9.84 | Cc1nc2c(-c3ncc(C(F)(F)F)cc3Cl)cc(N3CC(F)C3)nc2n1Cc1ccc2c(c1)CN(C1CCC(=O)NC1=O)C2=O (stereo not drawn) [Example 21, 3-(5-((7-(3-chloro-5-(trifluoromethyl)pyridin-2-yl)-5-(3-fluoroazetidin-1-yl)-2-methyl-3H-imidazo[4,5-b]pyridin-3-yl)methyl)-1-oxoisoindolin-2-yl)piperidine-2,6-dione] | 0.91 nM | 23.08
5.06 nM | 9.35 | CCOc1ccc(-c2c(F)c(N3CC[C@](C)(O)C3)nc3c2cnn3Cc2ccc3c(c2)CN([C@H]2CCC(=O)NC2=O)C3=O)c(Cl)c1 [Example 67, (3S)-3-(5-{[4-(2-chloro-4-ethoxyphenyl)-5-fluoro-6-[(3S)-3-hydroxy-3-methylpyrrolidin-1-yl]-1H-pyrazolo[3,4-b]pyridin-1-yl]methyl}-1-oxo-2,3-dihydro-1H-isoindol-2-yl)piperidine-2,6-dione] | 1.6 nM | 28.60
1.22 nM | 10.49 | N#Cc1ccc(-c2c(F)c(N3CC(F)C3)nc3c2cnn3Cc2ccc3c(c2)CN(C2CCC(=O)NC2=O)C3=O)c(F)c1 (stereo not drawn) [Example 41, 4-(1-{[2-(2,6-dioxopiperidin-3-yl)-1-oxo-2,3-dihydro-1H-isoindol-5-yl]methyl}-5-fluoro-6-(3-fluoroazetidin-1-yl)-1H-pyrazolo[3,4-b]pyridin-4-yl)-3-fluorobenzonitrile] | 1.23 nM | 26.68
0.67 nM | 7.50 | CN(C)c1cc(-c2ccc(C#N)cc2Cl)c2cnn(Cc3ccc4c(c3)CN(C3CCC(=O)NC3=O)C4=O)c2n1 (stereo not drawn) [Example 12, 3-chloro-4-[6-(dimethylamino)-1-{[2-(2,6-dioxopiperidin-3-yl)-1-oxo-2,3-dihydro-1H-isoindol-5-yl]methyl}-1H-pyrazolo[3,4-b]pyridin-4-yl]benzonitrile] | 0.99 nM | 23.97
9.61 nM | 8.29 | CCOc1cnc(-c2cc(N3CC(F)C3)nc3c2cnn3Cc2ccc3c(c2)CN([C@H]2CCC(=O)NC2=O)C3=O)c(C)c1 [Example 82, (3S)-3-(5-{[4-(5-ethoxy-3-methylpyridin-2-yl)-6-(3-fluoroazetidin-1-yl)-1H-pyrazolo[3,4-b]pyridin-1-yl]methyl}-1-oxo-2,3-dihydro-1H-isoindol-2-yl)piperidine-2,6-dione] | 4.19 nM | 29.74
0.24 nM | 7.25 | O=C1CC[C@H](N2Cc3cc(Cn4ncc5c(-c6ncc(C(F)(F)F)cc6Cl)c(Cl)c(N6CC(F)C6)nc54)ccc3C2=O)C(=O)N1 [Example 2, (3S)-3-[5-({5-chloro-4-[3-chloro-5-(trifluoromethyl)pyridin-2-yl]-6-(3-fluoroazetidin-1-yl)-1H-pyrazolo[3,4-b]pyridin-1-yl}methyl)-1-oxo-2,3-dihydro-1H-isoindol-2-yl]piperidine-2,6-dione] | 0.43 nM | 14.10
0.42 nM | 6.93 | CN(C)c1cc(-c2ncc(C(F)(F)F)cc2Cl)c2cnn(Cc3ccc4c(c3)CN(C3CCC(=O)NC3=O)C4=O)c2n1 (stereo not drawn) [Example 5, 3-[5-({4-[3-chloro-5-(trifluoromethyl)pyridin-2-yl]-6-(dimethylamino)-1H-pyrazolo[3,4-b]pyridin-1-yl}methyl)-1-oxo-2,3-dihydro-1H-isoindol-2-yl]piperidine-2,6-dione] | 0.36 nM | 29.57
